The target of this assay is Spleen tyrosine kinase (Syk) (Homo sapiens, UniProt P43405). The experiment in a line: ADP-Glo kinase assay with purified active Syk (Promega Syk Kinase Enzyme System V3801), Poly E4Y1 substrate, ATP. It counts as biochemical. For orientation: ADP-Glo first removes unused ATP, then detects ADP through luciferase.

The source of these data is paper PMC8042380, “Brusatol Derivative–34 Attenuates Allergic Airway Inflammation Via Inhibition of the Spleen Tyrosine Kinase Pathway” (Frontiers in Pharmacology, 2021).

Usually IC50 stands for the point on the concentration scale where inhibition reaches its midpoint. High values mean weaker potency, low ones greater potency.

Regarding `COC(=O)[C@@]12OC[C@@]34C(CC5C(C)=C(OC(=O)CCC(=O)OCCCCOc6no[n+]([O-])c6S(=O)(=O)c6ccccc6)C(=O)C[C@]5(C)C3[C@@H](O)[C@@H]1O)OC(=O)[C@H](OC(=O)C=C(C)C)C42` (stereo partly shown) [Bru-34, Brusatol derivative-34], the midpoint of inhibition, the IC50, lay at 540 nM.
